Test results published in ChEMBL document CHEMBL1201862, “PubChem BioAssay data set” (2004).
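Tested at 5 concentrations; 48 h exposure; 96-well plates; endpoints linearly interpolated, else capped at highest concentration. GI50 is the concentration that inhibits growth by half.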 Active and inactive are the calls of the source. No stated cut-off is given here; in the data, active = GI50 up to about 1.1 µM and inactive = higher.

Experiments:
Assay in all cases: inhibition of tumour cell growth, NCI panel, 48 h
IGROV-1 = system: IGROV-1
UO-31 = system: UO-31
A549 = system: A549
HCT-15 = system: HCT-15
HCC 2998 = system: HCC 2998
MCF7 = system: MCF7
HCT-116 = system: HCT-116
MDA-MB-435 = system: MDA-MB-435
SF-268 = system: SF-268
PC-3 = system: PC-3
DU-145 = system: DU-145
SW-620 = system: SW-620
K562 = system: K562
SK-MEL-2 = system: SK-MEL-2
SR = system: SR
EKVX = system: EKVX
SK-MEL-28 = system: SK-MEL-28
UACC-62 = system: UACC-62
RXF 393 = system: RXF 393
SK-OV-3 = system: SK-OV-3
SNB-19 = system: SNB-19
786-0 = system: 786-0
A498 = system: A498
OVCAR-8 = system: OVCAR-8
HT-29 = system: HT-29
NCI-H23 = system: NCI-H23
HOP-92 = system: HOP-92
OVCAR-4 = system: OVCAR-4
LOX IMVI = system: LOX IMVI
SF-295 = system: SF-295
MDA-MB-231 = system: MDA-MB-231
MOLT-4 = system: MOLT-4
M14 = system: M14
HOP-62 = system: HOP-62
SN12C = system: SN12C
Malme-3M = system: Malme-3M
SNB-75 = system: SNB-75
CCRF-CEM = system: CCRF-CEM
NCI/ADR-RES = system: NCI/ADR-RES
SK-MEL-5 = system: SK-MEL-5
U-251 = system: U-251
CAKI-1 = system: CAKI-1
BT-549 = system: BT-549
ACHN = system: ACHN
OVCAR-3 = system: OVCAR-3
UACC-257 = system: UACC-257
OVCAR-5 = system: OVCAR-5
Hs-578T = system: Hs-578T
TK-10 = system: TK-10
SF-539 = system: SF-539
RPMI-8226 = system: RPMI-8226
NCI-H460 = system: NCI-H460
KM12 = system: KM12
COLO 205 = system: COLO 205
HL-60 = system: HL-60
NCI-H226 = system: NCI-H226
NCI-H522 = system: NCI-H522

Measured: GI50

COc1cccc(-c2c(-c3ccccc3)[nH]c(C)c2C(=O)ONC(=O)c2ccccc2)c1
active: UO-31 0.128 µM
inactive: IGROV-1 1.66 µM | A549 2.29 µM | HCC 2998 14.4 µM | MCF7 8.85 µM | HCT-116 3.98 µM | MDA-MB-435 3.34 µM | SF-268 7.57 µM | PC-3 11.6 µM | DU-145 2.59 µM | SW-620 13.6 µM | K562 2.89 µM | SK-MEL-2 10.4 µM | SR 2.07 µM | EKVX 6.78 µM | SK-MEL-28 14.7 µM | UACC-62 13.8 µM | RXF 393 4.35 µM | SK-OV-3 14.2 µM | SNB-19 7.89 µM | 786-0 4.44 µM | A498 15 µM | OVCAR-8 5.18 µM | HT-29 10 µM | NCI-H23 11.6 µM | HOP-92 1.83 µM | OVCAR-4 5.05 µM | LOX IMVI 1.89 µM | SF-295 2.55 µM | MDA-MB-231 9.55 µM | MOLT-4 4.24 µM | M14 5.7 µM | HOP-62 2.72 µM | SN12C 3.4 µM | Malme-3M 13.4 µM | SNB-75 5.86 µM | CCRF-CEM 3.21 µM | NCI/ADR-RES 8.93 µM | SK-MEL-5 9.93 µM | U-251 3.14 µM | CAKI-1 3.18 µM | BT-549 5.41 µM | ACHN 2.99 µM | OVCAR-3 6.38 µM | UACC-257 13.5 µM | OVCAR-5 9.06 µM | Hs-578T 4.95 µM | TK-10 9.08 µM | SF-539 6.76 µM | RPMI-8226 6.28 µM | NCI-H460 3.19 µM | KM12 13.7 µM | COLO 205 13.7 µM | HL-60 1.93 µM | NCI-H226 10.4 µM | NCI-H522 3.78 µM
12.1 µM: HCT-15
